In patent US5480887A, “Protease inhibitors” (Eli Lilly and Company, priority 1994, dated 1996):
Where two headings read alike, the source gives them in different places.

Tests used:
[1] = biological target: T1, HIV-1 Protease (Human immunodeficiency virus type 1 group M subtype B, UniProt P04585); experiment: biochemical; conditions: read-out: Fluorescence Assay IC50 (converted)
T1 construct: HIV-1 Protease
Method: These compounds may be assayed using two assays: (1) an enzyme inhibition assay, and (2) an antiviral cell culture assay.
This assay is described in detail in published European Patent Application (EPA) 0 526 009, herein incorporated by reference. Using this assay, a number of the compounds, prepared above, were assayed for HIV protease inhibitory activity.
The assay is unable to test compounds at less than a concentration of 0.16 ng/mL.

[2] = system: HIV; experiment: microbe, parasite or virus in culture; type: cell-based; conditions: XTT, 450 nm, * (n) = average of n assays, read-out: Antiviral Activity IC90
Method: In addition, the compounds described in the present application may be tested using an antiviral cell culture assay as described in Weislow, O.S., J. of National Cancer Institute, 81(8), pages 577-586 (Apr. 19, 1989) herein incorporated by reference.
This assay compares the viability of HIV-infected cells in a cell culture medium relative to the viability of such cells in the presence of a test compound. The concentration of test compound necessary to inhibit 90% of the virus is then measured using the viability of the cells as an indicator of viral inhibition. This assay is carried out using cell lines that are sensitive to the lyric effects of HIV infection.
Specifically, this assay utilizes the metabolic reduction of a tetrazolium reagent, 2,3-bis[2-methoxy-4-nitro-5-sulfophenyl]-5-[(phenylamino)carbonyl]-2H-tetrazolium hydroxide (XTT). In the presence of a viable cell, the tetrazolium reagent, XTT, is reduced to provide XTT formazan which may be quantified using colorimetric determination (at 450 nm). The intensity of the chromogenic signal is directly proportional to the concentration of the XTT formazan, thus providing a measure of the quantity of viable cells.

[3] = Human immunodeficiency virus 1, concentration inhibiting 90% of the viral-induced toxicity
[4] = concentration inhibiting 90% of the viral-induced toxicity

IC50 [1] | Compound | IC90 [2, 3] | IC90 [2, 4]
0.239 nM | CC(=O)N[C@H](CS(=O)(=O)c1cccc2cccnc12)C(=O)N[C@@H](Cc1ccccc1)[C@H](O)CN1C[C@H]2CCS[C@H]2C[C@H]1C(=O)NC(C)(C)C [Example 25, N-t-Butyl-octahydro-5[2R-hydroxy-3S-phenylmethyl-4-aza-5-oxo-6S-N(acetyl)amino-7-quinolin-8-ylsulfonyl-heptyl]-(3aR,7aS)-thieno[3,2-c]pyridine-(6S)-carboxamide] | 279 nM | 
0.389 nM | CC(C)(C)NC(=O)[C@@H]1C[C@@H]2SCC[C@@H]2CN1C[C@@H](O)[C@H](Cc1ccccc1)NC(=O)[C@@H](CS(=O)(=O)c1cccc2cccnc12)NS(C)(=O)=O [Example 26, N-t-Butyl-octahydro-5[2R-hydroxy-3S-phenylmethyl-4-aza-5-oxo-6S-N(methylsulfonyl)amino-7-quinolin-8-ylsulfonyl-heptyl]-(3aR,7aS)-thieno[3,2-c]pyridine-(6S)-carboxamide] | 225 nM | 
11.1 nM | CC(C)(C)NC(=O)[C@@H]1C[C@@H]2SCC[C@@H]2CN1C[C@@H](O)[C@H](CSc1ccccc1)NC(=O)[C@@H](CS(=O)(=O)c1ccc(F)cc1)NC(=O)C(F)(F)F [Example 29, N-t-Butyl-octahydro-5[2R-hydroxy-3R-phenylthiomethyl-4-aza-5-oxo-6S-N(trifluoromethylcarbonyl)amino-7-p-fluorophenylsulfonyl-heptyl]-(3aR,7aS)-thieno[3,2-c]pyridine-(6S)-carboxamide] | 754 nM | 
1.96 nM | CC(C)(C)NC(=O)[C@@H]1C[C@@H]2SCC[C@@H]2CN1C[C@@H](O)[C@H](CSc1ccccc1)NC(=O)[C@@H](CS(=O)(=O)c1ccc2ccccc2c1)NC(=O)C(F)(F)F [Example 30B, N-t-Butyl-octahydro-5[2R-hydroxy-3R-phenylthiomethyl-4-aza-5-oxo-6S-N(trifluoromethylcarbonyl)amino-7-naphth-2-ylsulfonyl-heptyl]-(3aR,7aS)-thieno[3,2-c]pyridine-(6S)-carboxamide] | 203 nM | 
0.358 nM | C[C@H]1[C@@H](OC(=O)N[C@@H](CSc2ccccc2)[C@H](O)CN2C[C@H]3CCS[C@H]3C[C@H]2C(=O)NC(C)(C)C)CCS1(=O)=O [Example 37D, N-t-Butyl-octahydro-5[2R-hydroxy-3R-N(1',1'-dioxo-2'S-methyl-tetrahydrothiophen-3'S-yloxycarbonyl)amino-4-phenylthio)-butyl]-(3aR,7aS)-thieno[3,2-c] pyridine-(6S)-carboxamide methanesulfonate] |  | 1.8 nM
7.28 nM | C[C@@H]1[C@H](OC(=O)N[C@@H](CSc2ccccc2)[C@H](O)CN2C[C@H]3CCS[C@H]3C[C@H]2C(=O)NC(C)(C)C)CCS1(=O)=O [Example 38D, N-t-Butyl-octahydro-5[2R-hydroxy-3R-N(1',1'-dioxo-2'R-methyl-tetrahydrothiophen-3'R-yloxycarbonyl)amino-4-phenylthio)-butyl]-(3aR,7aS)-thieno[3,2c] pyridine-(6S)-carboxamide methanesulfonate] |  | 7.1 nM

Compound | IC50 [1] | IC90 [2, 3] | IC90 [2, 4]
CC(=O)N[C@H](CS(=O)(=O)c1ccc2ccccc2c1)C(=O)N[C@@H](Cc1ccccc1)[C@H](O)CN1C[C@H]2CCS[C@H]2C[C@H]1C(=O)NC(C)(C)C [Example 28] | 2.67 nM | 21.8 nM | 
